Where two headings read alike, the source gives them in different places. One block for each compound: values may come before it.
Tests used:
[1] = biological target: T1, rat membrane aminopeptidase P (Rattus norvegicus, UniProt Q99MA2); test: Inhibition of purified rat membrane aminopeptidase P with Arg-Pro-Pro substrate; assay type: biochemical
T1 sequence (Q99MA2 23-650): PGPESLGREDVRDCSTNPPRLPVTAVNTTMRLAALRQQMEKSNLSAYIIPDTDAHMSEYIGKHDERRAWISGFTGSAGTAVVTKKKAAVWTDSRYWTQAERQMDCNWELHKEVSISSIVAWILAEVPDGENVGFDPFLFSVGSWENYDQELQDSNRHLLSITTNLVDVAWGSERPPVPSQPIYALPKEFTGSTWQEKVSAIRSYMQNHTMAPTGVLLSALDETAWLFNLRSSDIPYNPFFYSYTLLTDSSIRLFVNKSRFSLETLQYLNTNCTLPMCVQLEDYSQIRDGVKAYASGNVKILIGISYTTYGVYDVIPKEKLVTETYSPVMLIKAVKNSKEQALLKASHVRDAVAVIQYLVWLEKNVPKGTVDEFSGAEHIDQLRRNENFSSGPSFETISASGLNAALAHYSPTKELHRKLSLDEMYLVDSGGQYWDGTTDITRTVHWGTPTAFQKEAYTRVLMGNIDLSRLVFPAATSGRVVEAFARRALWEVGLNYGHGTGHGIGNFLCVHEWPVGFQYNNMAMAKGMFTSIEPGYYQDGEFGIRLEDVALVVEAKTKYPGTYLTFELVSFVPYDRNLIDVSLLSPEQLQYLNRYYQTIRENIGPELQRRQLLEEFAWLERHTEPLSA
Protocol: The IC50 for each of compounds IV-VIII was determined as the concentration in nmoles/liter (nM) required to inhibit rat membrane aminopeptidase P by 50% using Arg-Pro-Pro (0.5 mM) as the substrate. […] See Maggiora et al.,

blood pressure = conditions: rat model of severe hypertension; cited from earlier work
isolated perfused heart = conditions: cited from earlier work
myocardial infarct size = conditions: intact rats subjected to regional cardiac ischemia; cited from earlier work
[2] = tested on: bradykinin vasodepressor response; conditions: cited from earlier work
aminopeptidase P = conditions: cited from earlier work
bradykinin degradation = conditions: isolated perfused rat heart and lung; cited from earlier work
[3] = purified rat membrane aminopeptidase P, Arg-Pro-Pro (0.5 mM) as the substrate, read-out: Binding affinity (IC50 in nanomolar)

Compound: CC(NC(=O)C1CCCN1C(=O)C1CCCN1C(=O)CS)C(N)=O (stereo not drawn) [Analog 1, N-mercaptoacetyl-Pro-Pro-Ala-NH2]
IC50 ([1]; rat mAPP, read-out: IC50): 3400 nM

Compound: CCCCC(S)C(=O)N1CCCC1C(=O)N1CCCC1C(=O)NC(C)C(N)=O [Analog 2, N-[(R)-2-mercaptohexanoyl]-Pro-Pro-Ala-NH2]
IC50 [1, 3]: 130 nM

Compound: C[C@H](NC(=O)[C@@H]1CCCN1C(=O)[C@@H]1CCCN1C(=O)[C@@H](O)[C@H](N)Cc1ccccc1)C(N)=O [apstatin]
blood pressure reduction with an ACE inhibitor (blood pressure): acted synergistically with an ACE inhibitor to reduce blood pressure to normal
reduction of reperfusion-induced ventricular fibrillation (isolated perfused heart): by a similar amount
reduction of cardiac damage (isolated perfused heart; heart attack model): 74%
myocardial infarct size (myocardial infarct size): substantially reduced myocardial infarct size
effect on blood pressure-lowering effects of intravenously administered bradykinin ([2]; rat, in vivo, iv): enhanced
dose at which bradykinin potentiation has been observed ([2]; rats, intravenously, administered over a one hour period): 0.08 to 0.8 mg/kg
potency (aminopeptidase P): micromolar
bradykinin degradation (bradykinin degradation): reduce bradykinin degradation

Results, then the compound that gave them:

IC50 [1, 3]: 10 nM
Compound: CCC(C)C(S)C(=O)N1CCCC1C(=O)N1CCCC1C(=O)NC(C)C(N)=O [Analog 5, N-[(2S, 3S)-2-mercapto-3-methylpentanoyl]-Pro-Pro-Ala-NH2]

IC50 [1, 3]: 170 nM
Compound: CCCCC(S)C(=O)N1CCCC1C(=O)N1C(C)CCC1C(=O)NC(C)C(N)=O [Analog 3, N-[(R)-2-mercaptohexanoyl]-Pro-MePro-Ala-NH2]

IC50 [1, 3]: 87 nM
Compound: O=C(O)CCNC(=O)[C@@H]1CCCN1C(=O)[C@@H]1CCCN1C(=O)[C@@H](S)C1CCCCC1 [Analog 4, N-[(S)-2-mercapto-2-cyclohexylacetyl]-Pro-Pro-β-Ala-OH]

— patent publication US7390789B2, “Thio-containing inhibitors of aminopeptidase P, and compositions thereof” (priority 2005, dated 2008)
